In patent publication US9585929B2 (ZHEJIANG KANGLAITE GROUP CO., LTD., priority 2014, dated 2017):
Values after ≈ are worked out from the molar mass of the structure shown. Counter-ions that a name gives are not always drawn. Marks after values point to notes of the source that are not given here.

Legend:
S180 sarcoma = S180 sarcoma model in mice; format: in vivo, Kunmin mice
Experimental: The injection of the invention (10 g/100 ml), Cyclophosphamide (CTX), Mitoxantrone (DHAD), Mitomycin (MMC) and normal saline
Ascitic fluid of mice having well-grown […] sarcoma was diluted with normal saline (1:4) to obtain a cell suspension of about 1-2×10^7 cells/ml. Each mouse was inoculated with 0.2 ml of the suspension subcutaneously at the right axilla, and the mice were grouped randomly. The administration began from the next day according to the dosage program in Table 7. On the tenth day after the inoculation of S180, animals were sacrificed via cervical dislocation and dissected to take out the tumor block. Weights of tumor were compared and inhibition rates were calculated for each group.

[1] = test system: FC-3M human prostate cancer; experiment: FC-3M human prostate cancer model in nude mice; format: in vivo, BALB/C nude mice
Experimental: The injection of the invention (10 g/100 ml), Leuprolide acetate (Lupron) and normal saline
Tumor blocks of well-grown FC-3M human prostate cancer were homogenized in normal saline (1:4). Each nude mouse was inoculated with 0.2 ml of the suspension at the right axilla subcutaneously, and the mice were grouped randomly. The administration began from the next day. 21 Days after the inoculation, the mice were sacrificed. Tumor blocks were taken out and weighed. Differences of tumor weight between each experimental group and the control group were compared and the tumor inhibition rates were calculated.

A549 human lung cancer = experiment: Xenograft model of A549 human lung cancer inoculated subcutaneously in nude mice; format: in vivo, BALB/C nude mice
Experimental: (§11) A549 Human lung cancer cells cryopreserved in liquid nitrogen were recovered, and incubated in a 37 incubator under 5% CO2. After being subcultured, cells in a logarithmic growth stage were distributed with normal saline to be a cell suspension in a concentration of 1-2×10^7 cells/ml. The cell suspension was inoculated into BALB/C nude mice (SPF grade, 18-20 g, 6 weeks old, male) subcutaneously at right axillary. The tumor tissues were aseptically taken from the 2nd generation of xenograft model of A549 human lung cancer in a vigorous growth stage and cut into small uniform pieces in the size of 1-2 mm^3. The right axillary of each nude mouse was inoculated one piece subcutaneously via a trocar. When the inoculated tumor could be touched, the mice were randomly grouped and administered according to the experimental design program. All contacted feed, padding, cages and equipment, etc., should be autoclaved prior to use. The nude mice were fed in a laminar flow rack. Tumor sizes and animal weights were observed and tested dynamically. Mice in each group were sacrificed 3 weeks later or so, and tumors were surgically removed and weighed. The inhibition rate on tumor was calculated according to the following formula: Inhibition rate %=[(Mean tumor weight of the control group−mean tumor weight of the treatment group)/mean tumor weight of the control group]×100%;
(§12) Q value of antitumor effect in drug combination was calculated according to Jin's formula: Q=Ea+b/(Ea+Eb−Ea×Eb) Wherein Ea+b=the tumor inhibition rate of drug combination, Ea or Eb=the tumor inhibition rate of drug A or drug B, respectively. If Q value=0.85-1.15, an additive effect (+) was shown; if Q value>1.15, a synergistic effect (++) was shown.

SMMC-7721 human hepatoma = experiment: Xenograft model of SMMC-7721 human hepatoma inoculated subcutaneously in nude mice; format: in vivo
Experimental: A549 Human lung cancer cells cryopreserved in liquid nitrogen were recovered, and incubated in a 37 incubator under 5% CO2. After being subcultured, cells in a logarithmic growth stage were distributed with normal saline to be a cell suspension in a concentration of 1-2×10^7 cells/ml. The cell suspension was inoculated into BALB/C nude mice (SPF grade, 18-20 g, 6 weeks old, male) subcutaneously at right axillary. The tumor tissues were aseptically taken from the 2nd generation of xenograft model of A549 human lung cancer in a vigorous growth stage and cut into small uniform pieces in the size of 1-2 mm^3. The right axillary of each nude mouse was inoculated one piece subcutaneously via a trocar. When the inoculated tumor could be touched, the mice were randomly grouped and administered according to the experimental design program. […] The nude mice were fed in a laminar flow rack. Tumor sizes and animal weights were observed and tested dynamically. Mice in each group were sacrificed 3 weeks later or so, and tumors were surgically removed and weighed. The inhibition rate on tumor was calculated according to the following formula: Inhibition rate %=[(Mean tumor weight of the control group−mean tumor weight of the treatment group)/mean tumor weight of the control group]×100%;
as §12

[2] = test system: PANC-1 human pancreatic cancer; experiment: PANC-1 human pancreatic cancer model in nude mice; format: in vivo, BALB/C nude mice; details: Gemcitabine 60 mg/kg iv × 1
Experimental: as §12
PANC-1 human pancreatic cancer cells: inoculated in BALB/C nude mice, 16-18 g, female
Tumor blocks of well-grown PANC-1 human pancreatic cancer were inoculated subcutaneously in 4-week-old female BALB/C nude mice. The nude mice were grouped randomly and administered. One week after the end of the administration, the mice were sacrificed and dissected. Tumor blocks were taken out and weighed. Differences of tumor weight between each experimental group and the control group were compared and the tumor inhibition rates were calculated.

[3] = test system: A549 (human lung cancer cells); experiment: MTT inhibition of tumor cell growth in vitro; format: cell-based
Experimental: (§1) The inhibition effects of samples on the above-mentioned cell lines were detected by using MTT method. The specific procedures were as follows:
(§2) (1) Cell culture: (a) Storaged cells were taken out from the liquid nitrogen, thawed quickly in a 37 water bath, then aseptically transferred into 6 ml of cellular medium in a 10 ml centrifugal tube, centrifuged at 1000 rpm for 5 min. The supernatant was discarded, then the precipitated cells were re-suspensed in 5-6 ml cellular media by pipetting and transferred into a flask in a 37 incubator for cell culture; (b) Next day, the flask was taken out from the incubator and the used medium was discarded, then the cells were incubated in 5-6 ml fresh medium in the 37 incubator; (c) On the third day, the flask was taken out from the incubator and the used medium was discarded, then 2-3 ml of PBS (pH7.4) was added into the flask with rocking for cleaning it and the used PBS was discarded. Such a cellular cleaning step was repeated once again. 3-5 drops of 0.25% trypsin solution were added into the flask with sloshing, thus well-distributed in it. The flask was capped and placed in a 37 incubator for about 3 min, and the separation of cells from the flask wall was observed under the microscope. 2 ml of cellular medium was added and cells were separated completely from the flask wall by pipetting, then the cell suspension was transferred into 2 separate clean flasks, each containing 5-6 ml medium. The cell suspension was well-distributed by pipetting, then the flask was placed in a 37 incubator. (d) Step (c) was repeated every other day. In the whole cultivation process, adherent cells were not allowed to grow too dense and suspension cells were always maintained at a logarithmic growth stage.
(§3) This solution was diluted in a gradient dilution with PBS to obtain a set of sample solutions in the concentration of 10 mg/ml, 5000 μg/ml, 2500 μg/ml, 1250 μg/ml, 625 μg/ml and 312.5 μg/ml, respectively.
(§4) (3) Each diluted sample solution was added into duplicated wells of a 96 well flat-bottom microplate (10 μl/well). The correspondingly diluted DMSO solutions, as controls, were added into the wells of the microplate.
(§5) (4) Cells in a logarithmic growth stage were trypsinized and washed, then re-suspended in the medium containing 10% calf serum. The number of living cells was counted in Trypan blue dye exclusion method and cell suspensions were adjusted into a density of 2×10^5 cell/ml.
(§6) (5) The cell-contained 96 well flat-bottom microplate was placed in a 37 incubator and cells were incubated under 5% CO2 for 48 h.
(§7) (6) 20 μl of 5 mg/ml MTT solution was added into each well and cells were incubated continuously in the incubator for 3-4 h.
(§8) (7) 100 μl of crystal dissolving solution was added into each well and cells were incubated continuously in the incubator overnight, so as to dissolve the resulted formazan crystals sufficiently. Then, the absorbance value was measured at 570 nm for each well.
(§9) (8) Based on absorbance values, inhibition rates on the cell growth were calculated for sample groups of various concentrations. The calculation formula was as follows: (1−mean absorbance of experimental wells/mean absorbance of control wells)×100%

[4] = test system: Bcap-37 (human breast cancer cells); experiment: MTT inhibition of tumor cell growth in vitro; format: cell-based; details: Bcap37
Experimental: as §1, §2, §3, §4, §5, §6, §7, §8, §9

[5] = test system: H460 (human lung cancer cells); experiment: MTT inhibition of tumor cell growth in vitro; format: cell-based; details: NCI-H460
Experimental: as §1, §2, §3, §4, §5, §6, §7, §8, §9

[6] = test system: HepG-2 (human hepatic cancer cells); experiment: MTT inhibition of tumor cell growth in vitro; format: cell-based; details: HepG2
Experimental: as §1, §2, §3, §4, §5, §6, §7, §8, §9

[7] = test system: MCF-7 (human breast cancer cells); experiment: MTT inhibition of tumor cell growth in vitro; format: cell-based; details: MCF7
Experimental: as §1, §2, §3, §4, §5, §6, §7, §8, §9

[8] = test system: PANC-1 (human pancreatic cancer cells); experiment: MTT inhibition of tumor cell growth in vitro; format: cell-based
Experimental: as §1, §2, §3, §4, §5, §6, §7, §8, §9

[9] = test system: SKOV3 (human ovarian cancer cells); experiment: MTT inhibition of tumor cell growth in vitro; format: cell-based; details: SK-OV-3
Experimental: as §1, §2, §3, §4, §5, §6, §7, §8, §9

[10] = test system: SMMC-7721 (human hepatic cancer cells); experiment: MTT inhibition of tumor cell growth in vitro; format: cell-based
Experimental: as §1, §2, §3, §4, §5, §6, §7, §8, §9

[11] = test system: MDA-MB-435 human breast cancer; experiment: MDA-MB-435 human breast cancer model in nude mice; format: in vivo, BALB/C nude mice; details: Paclitaxel 50 mg/kg ip × 1
Experimental: (§10) Each nude mouse was inoculated with 0.2 ml of the suspension at the right axilla subcutaneously, and the mice were grouped randomly. The administration began from the 7th day after the inoculation. 18 Days after the inoculation, the mice were sacrificed. Tumor blocks were taken out and weighed. Differences of tumor weight between each experimental group and the control group were compared, and tumor inhibition rates and Q values were calculated.

[12] = test system: Bcap-37 human breast cancer; experiment: Bcap-37 human breast cancer model in nude mice; format: in vivo, BALB/C nude mice; details: Docetaxel 25 mg/kg ip × 1
Experimental: The injection of the invention (10 g/100 ml), Docetaxel injection (Taxotere, 20 mg/vial) and normal saline
Bcap-37 human breast cancer: inoculated in BALB/C nude mice (SPF grade), 18-20 g, female
as §10, with “Tumor blocks of well-grown Bcap-37 human breast cancer were homogenized in normal saline to obtain cell suspensions in the concentration of 1-2×10^7 cells/ml. Each” for “Each”, “20” for “18”

LM-3 human hepatoma = experiment: Xenograft model of LM-3 human hepatoma inoculated subcutaneously in nude mice
Experimental: The injection of the invention (10 g/100 ml), cyclophosphamide (Jiangsu Hengrui Medicine Co., Ltd), blank fat emulsion and normal saline

W256 cancer sarcoma = W256 cancer sarcoma model in rats; format: in vivo, Wistar rats
Experimental: The injection of the invention (10 g/100 ml), Cyclophosphamide (CTX) and normal saline
W256 cancer sarcoma: inoculated in Wistar rats, 50-60 g, female
Ascitic fluid of rats with well-grown W256 cancer sarcoma was diluted with normal saline to obtain a cell suspension of about 1-2×10^7 cells/ml. Each rat was inoculated with 0.2 ml of the suspension at the right axilla subcutaneously. The rats were grouped randomly next day and began administration. Two weeks later, animals were sacrificed and dissected to take out the tumor block. Weights of tumor were compared between each experimental group and the control group and tumor inhibition rates were calculated.

QGY human hepatoma = experiment: Xenograft model of QGY human hepatoma inoculated subcutaneously in nude mice
Experimental: as §11, §12

[13] = Gemcitabine 25 mg/kg iv × 3 q 3 d
[14] = Gemcitabine 50 mg/kg iv × 3 q 3 d
[15] = cyclophosphamide 15 mg/kg ip × 7 qd
[16] = cyclophosphamide 30 mg/kg ip × 7 qd

## CO[C@@]12[C@H](COC(N)=O)C3=C(C(=O)C(C)=C(N)C3=O)N1C[C@@H]1N[C@@H]12 [MMC, Mitomycin]
S180 sarcoma; MMC 1.5 mg/kg ip × 2(1, 3)
  Inhibition rate: 38.61* %
  Weight of tumor x ± SD: 0.97 ± 0.19 g

## O=C1c2c(O)ccc(O)c2C(=O)c2c(NCCNCCO)ccc(NCCNCCO)c21 [DHAD, Mitoxantrone]
S180 sarcoma; DHAD 2 mg/kg ip × 2(1, 3)
  Inhibition rate: 50.63** %
  Weight of tumor x ± SD: 0.78 ± 0.20 g

## CCNC(=O)[C@@H]1CCCN1C(=O)[C@H](CCCNC(=N)N)NC(=O)[C@H](CC(C)C)NC(=O)[C@@H](CC(C)C)NC(=O)[C@H](Cc1ccc(O)cc1)NC(=O)[C@H](CO)NC(=O)[C@H](Cc1c[nH]c2ccccc12)NC(=O)[C@H](Cc1c[nH]cn1)NC(=O)[C@@H]1CCC(=O)N1 [Lupron, Leuprolide acetate]
[1]; Lupron 0.75 ml/kg iv × 1
  Inhibition rate: 36.36** %
  Weight of tumor x ± SD: 0.98 ± 0.23 g
[1]; Lupron 1.5 ml/kg iv × 1
  Inhibition rate: 50.65** %
  Weight of tumor x ± SD: 0.76 ± 0.14 g

## N.N.[Cl][Pt][Cl] [Cisplatin]
A549 human lung cancer; Cisplatin 1 mg/kg ip × 7 qd
  Inhibition rate: 42.13%
  Weight of animal end: 24.0 g
  Weight of animal start: 20.2 g
  Weight of tumor x ± SD: 0.765 ± 0.11 g
A549 human lung cancer; Cisplatin 2 mg/kg ip × 7 qd
  Inhibition rate: 86.31%
  Weight of animal end: 23.1 g
  Weight of tumor x ± SD: 0.181 ± 0.06 g

## Nc1ccn([C@@H]2O[C@H](CO)[C@@H](O)C2(F)F)c(=O)n1 [Gemcitabine, gemcitabine hydrochloride]
SMMC-7721 human hepatoma; [13]
  Inhibition rate: 49.14%
  Weight of animal end: 25.1 g
  Weight of animal start: 20.1 g
  Weight of tumor x ± SD: 0.886 ± 0.24 g
SMMC-7721 human hepatoma; [14]
  Inhibition rate: 87.66%
  Weight of animal end: 24.2 g
  Weight of tumor x ± SD: 0.215 ± 0.11 g
[2]
  Inhibition rate: 24.61%
  Weight of tumor x ± SD: 0.1443 ± 0.081 g

## CC(=O)O[C@H]1C(=O)[C@@]2(C)[C@H]([C@H](OC(=O)c3ccccc3)[C@]3(O)C[C@H](OC(=O)[C@H](O)[C@@H](NC(=O)c4ccccc4)c4ccccc4)C(C)=C1C3(C)C)[C@]1(OC(C)=O)CO[C@@H]1C[C@@H]2O [Taxol, paclitaxel]
[3]
  IC50: 0.46 µg/mL (≈ 0.539 µM)
[4]
  IC50: 0.28 µg/mL (≈ 0.328 µM)
[5]
  IC50: 0.49 µg/mL (≈ 0.574 µM)
[6]
  IC50: 0.45 µg/mL (≈ 0.527 µM)
[7]
  IC50: 0.18 µg/mL (≈ 0.211 µM)
[8]
  IC50: 0.44 µg/mL (≈ 0.515 µM)
[9]
  IC50: 0.22 µg/mL (≈ 0.258 µM)
[10]
  IC50: 0.41 µg/mL (≈ 0.48 µM)
[11]
  Inhibition rate: 62.87%

## CC(=O)O[C@@]12CO[C@@H]1C[C@H](O)[C@@]1(C)C(=O)[C@H](O)C3=C(C)[C@@H](OC(=O)[C@H](O)[C@@H](NC(=O)OC(C)(C)C)c4ccccc4)C[C@@](O)([C@@H](OC(=O)c4ccccc4)[C@H]21)C3(C)C [Docetaxel]
[12]
  Inhibition rate: 56.80%
  Weight of tumor x ± SD: 1.27 ± 0.88 g

## O=P1(N(CCCl)CCCl)NCCCO1 (stereo not drawn) [cyclophosphamide, Cyclophosphamide]
LM-3 human hepatoma; [15]
  Inhibition rate: 27.82%
  Weight of animal end: 24.8 g
  Weight of animal start: 20.7 g
  Weight of tumor x ± SD: 1.108 ± 0.09 g
LM-3 human hepatoma; [16]
  Inhibition rate: 82.74%
  Weight of animal end: 25.0 g
  Weight of animal start: 20.5 g
  Weight of tumor x ± SD: 0.265 ± 0.12 g
S180 sarcoma; CTX 30 mg/kg ip × 2(1, 3)
  Inhibition rate: 41.77* %
  Weight of tumor x ± SD: 0.92 ± 0.21 g
W256 cancer sarcoma; CTX 10 mg/kg iv × 2(3, 5)
  Inhibition rate: 37.83* %
  Weight of tumor x ± SD: 2.12 ± 1.22 g
W256 cancer sarcoma; CTX 30 mg/kg iv × 7
  Inhibition rate: 87.68** %
  Weight of tumor x ± SD: 0.42 ± 0.85 g

## COc1cccc2c1C(=O)c1c(O)c3c(c(O)c1C2=O)C[C@@](O)(C(=O)CO)C[C@@H]3O[C@H]1C[C@H](N)[C@H](O)[C@H](C)O1 [Adriamycin]
QGY human hepatoma; Adriamycin 1 mg/kg ip × 7 qd
  Inhibition rate: 38.41%
  Weight of animal start: 21.3 g
  Weight of tumor x ± SD: 0.712 ± 0.18 g
QGY human hepatoma; Adriamycin 2 mg/kg ip × 7 qd
  Inhibition rate: 70.76%
  Weight of tumor x ± SD: 0.338 ± 0.17 g
